42 compounds from doi:10.1101/2024.06.25.600598v1 (biorxiv, 2024) can be followed below.

In general, Ki refers to a measure of affinity in units of concentration, obtained from inhibition or displacement. A higher Ki goes with lower affinity.

Counter-ions that a name gives are not always drawn. Numbered stars: 1 amine (or outer) side, 2 acyl side, 3 side chain; on linkers, the order of the positions; unused ones are H or OH. Bridge positions count the residues as written; N and C are the ends. Square brackets hold non-standard residues; d marks the D form. Side chains are listed from the residue outwards. Peptide text beside a SMILES is read from it. * marks the point of attachment. Ethylenediamine = C(CN[*:2])N[*:1]; Hyp = O=C(O)[C@@H]1C[C@@H](O)CN1; hArg = N=C(N)NCCCC[C@H](N)C(=O)O; Phg = N[C@H](C(=O)O)c1ccccc1; CO = O=C([*:1])[*:2]; Bn = c1ccc(C*)cc1; Mpa = O=C(O)CCS

The target of this assay is T1, fibroblast activation protein (FAP; rhFAP, SLIN-tagged hFAP) (Homo sapiens, UniProt Q12884).
T1 sequence (Q12884 35-760): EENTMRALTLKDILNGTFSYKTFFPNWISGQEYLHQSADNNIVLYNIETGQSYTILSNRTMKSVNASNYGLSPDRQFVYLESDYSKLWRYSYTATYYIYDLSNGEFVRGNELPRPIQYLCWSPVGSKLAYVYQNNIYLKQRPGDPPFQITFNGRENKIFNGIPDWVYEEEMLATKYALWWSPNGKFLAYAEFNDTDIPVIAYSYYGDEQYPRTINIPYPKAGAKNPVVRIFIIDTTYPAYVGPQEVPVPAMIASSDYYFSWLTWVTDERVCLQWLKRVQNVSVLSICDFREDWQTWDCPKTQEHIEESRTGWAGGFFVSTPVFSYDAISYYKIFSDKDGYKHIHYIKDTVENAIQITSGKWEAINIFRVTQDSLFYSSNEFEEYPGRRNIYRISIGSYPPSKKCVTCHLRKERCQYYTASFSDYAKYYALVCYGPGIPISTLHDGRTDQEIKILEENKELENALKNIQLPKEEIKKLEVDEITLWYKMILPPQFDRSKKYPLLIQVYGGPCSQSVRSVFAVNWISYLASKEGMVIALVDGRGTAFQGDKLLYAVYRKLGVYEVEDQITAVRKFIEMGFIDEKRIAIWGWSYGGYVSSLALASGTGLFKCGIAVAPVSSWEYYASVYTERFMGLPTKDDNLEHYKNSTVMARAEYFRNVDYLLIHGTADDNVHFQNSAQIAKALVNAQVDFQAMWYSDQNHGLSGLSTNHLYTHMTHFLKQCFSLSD
The experiment in a line: biochemical.
Compound `CC(C)C[C@H](NC(=O)CNC(=O)c1cc(Cl)ccc1Cl)B1OC(=O)C(CC(=O)O)(CC(=O)O)O1` [Ixazomib citrate] registered a Ki of 25.1 µM.

In turn, `NC(=O)c1cc[n+](CC2=C(C(=O)O)N3C(=O)[C@@H](NC(=O)[C@@H](c4ccccc4)S(=O)(=O)[O-])[C@H]3SC2)cc1` [Cefsulodin (sodium)] registered a Ki of 41.4 µM.

`C=CC[N+]1([C@H]2C[C@H]3[C@@H]4CC[C@H]5C[C@H](OC(C)=O)[C@@H](N6CCCCC6)C[C@]5(C)[C@H]4CC[C@]3(C)[C@H]2OC(=O)CC)CCCCC1` [Rapacuronium bromide] returned a Ki of 14.1 µM.

`Cc1nnc(SCC2=C(C(=O)O)N3C(=O)[C@@H](NC(=O)Cn4cc(Cl)c(=O)c(Cl)c4)[C@H]3SC2)s1` [Cefazedone] came in with a Ki of 25.6 µM.

`Cn1c(CCCC(=O)O)nc2cc(N(CCCl)CCCl)ccc21` [Bendamustine] gave a Ki of 25 µM.

Compound `COc1ccc(C(=O)N2CCCC2=O)cc1` [Aniracetam] displayed a Ki of 40.4 µM.

On to `COc1cc(C(=O)NS(=O)(=O)c2ccccc2C)ccc1Cc1cn(C)c2ccc(NC(=O)OC3CCCC3)cc12` [Zafirlukast], for which the Ki was 13.4 µM.

In turn, `NC(=O)c1cccc2cn(-c3ccc([C@@H]4CCCNC4)cc3)nc12` [Niraparib (tosylate)] had a Ki of 16.3 µM.

With `COC(=O)c1ccc2c(c1)NC(=O)/C2=C(\Nc1ccc(N(C)C(=O)CN2CCN(C)CC2)cc1)c1ccccc1` [Nintedanib esylate], the Ki was 27.7 µM.

Take `C=CCN1C[C@H](C(=O)N(CCCN(C)C)C(=O)NCC)C[C@@H]2c3cccc4[nH]cc(c34)C[C@H]21` [Cabergoline]: the Ki came to 17.5 µM.

As for `COCC1=C(C(=O)OC(C)OC(=O)OC(C)C)N2C(=O)[C@@H](NC(=O)/C(=N\OC)c3csc(N)n3)[C@H]2SC1` (stereo partly drawn) [Cefpodoxime Proxetil], the Ki came out at 34.6 µM.

Regarding `CC(=O)O[C@H]1C[C@@H]2CC[C@@H]3[C@H](CC[C@@]4(C)[C@H]3C[C@H]([N+]3(C)CCCCC3)[C@@H]4OC(C)=O)[C@@]2(C)C[C@@H]1N1CCCCC1` [Vecuronium (bromide)], affinity was put at a Ki of 25.8 µM.

For the compound `CC(C)(O/N=C(\C(=O)N[C@@H]1C(=O)N2C(C(=O)[O-])=C(C[n+]3ccccc3)CS[C@H]12)c1csc(N)n1)C(=O)O` [Ceftazidime (pentahydrate)], the affinity corresponds to a Ki of 20.8 µM.

Turning to `CC/C=C\C/C=C\C/C=C\C/C=C\C/C=C\CCCC(=O)O` [Eicosapentaenoic Acid], the Ki came out at 15.8 µM.

Regarding `COc1cc(NCc2ccc3nc(N)nc(N)c3c2C)cc(OC)c1OC` [Trimetrexate], the affinity, expressed as Ki, was 27.2 µM.

Regarding `CC1(C)S[C@@H]2[C@H](NC(=O)C(C(=O)Oc3ccc4c(c3)CCC4)c3ccccc3)C(=O)N2[C@H]1C(=O)O` (stereo partly drawn) [Carindacillin (sodium)], the affinity corresponds to a Ki of 14.5 µM.

Turning to `CO/N=C(\C(=O)N[C@@H]1C(=O)N2C(C(=O)O)=C(CSc3nnnn3C)CS[C@H]12)c1csc(N)n1` [Cefmenoxime (hydrochloride)], the Ki amounted to 25.1 µM.

`CC(C)=CCOc1ccc(/C=C/C(=O)c2ccc(OCC=C(C)C)cc2OCC(=O)O)cc1` [Sofalcone] came in with a Ki of 16 µM.

In the case of `CO[C@H]1/C=C/O[C@@]2(C)Oc3c(C)c(O)c4c(O)c(c(/C=N/N5CCN(C6CCCC6)CC5)c(O)c4c3C2=O)NC(=O)/C(C)=C\C=C\[C@H](C)[C@H](O)[C@@H](C)[C@@H](O)[C@@H](C)[C@H](OC(C)=O)[C@@H]1C` [Rifapentine], the Ki turned out to be 11.9 µM.

For `CCOC(=O)[C@@](C)(N)Cc1ccc(O)c(O)c1` [Methyldopate], the Ki was 29.6 µM.

`CC(C)(C)OC(=O)N[C@H]1CCCCC/C=C\[C@@H]2C[C@@]2(C(=O)NS(=O)(=O)C2CC2)NC(=O)[C@@H]2C[C@@H](OC(=O)N3Cc4cccc(F)c4C3)CN2C1=O` [Danoprevir] displayed a Ki of 19.3 µM.

`Nc1c2ccccc2nc2ccccc12` [9-Aminoacridine]: the Ki came out at 12.4 µM.

Turning to `NC(=NCc1ccccc1)NC(=O)c1nc(Cl)c(N)nc1N` [Benzamil (hydrochloride)], the Ki stood at 35.3 µM.

With `CC(C)C[C@H](NC(=O)CNC(=O)c1cc(Cl)ccc1Cl)B(O)O` [Ixazomib], the inhibition constant Ki was 33 µM.

Compound `CCOC(=O)OC(C)OC(=O)[C@@H]1N2C(=O)[C@@H](NC(=O)[C@H](N)c3ccccc3)[C@H]2SC1(C)C` (stereo partly drawn) [Bacampicillin (hydrochloride)] came in with a Ki of 12.7 µM.

`NCc1ccccc1CC(=O)N[C@@H]1C(=O)N2C(C(=O)O)=C(CSc3nnnn3CC(=O)O)CS[C@H]12` [Ceforanide] displayed a Ki of 10.7 µM.

The compound `CNCc1ccc(-c2[nH]c3cc(F)cc4c3c2CCNC4=O)cc1` [Rucaparib] gave a Ki of 44.4 µM.

The compound `CCCCc1nc(C)c(CC(=S)N(C)C)c(=O)n1Cc1ccc(-c2ccccc2-c2nnn[nH]2)cc1` [Fimasartan] gave an inhibition constant Ki of 14.6 µM.

As to `CCC(=O)O[C@@H](O[P@](=O)(CCCCc1ccccc1)CC(=O)N1C[C@H](C2CCCCC2)C[C@H]1C(=O)O)C(C)C` [Fosinopril (sodium)], the affinity, expressed as Ki, was 11.6 µM.

Consider `CCCc1nc(C)c2c(=O)[nH]c(-c3cc(S(=O)(=O)N4CCN(CC)CC4)ccc3OCC)nn12` [Vardenafil (hydrochloride)], for which affinity was put at a Ki of 39.7 µM.

`CC[C@@H]1C(=O)N(C)c2cnc(Nc3ccc(C(=O)N[C@H]4CC[C@H](N5CCN(CC6CC6)CC5)CC4)cc3OC)nc2N1C(C)C` [Volasertib] registered a Ki of 10.9 µM.

In the case of `N=C(N)NCCCC[C@@H]1NC(=O)CCSSC[C@@H](C(N)=O)NC(=O)[C@@H]2CCCN2C(=O)[C@H](Cc2c[nH]c3ccccc23)NC(=O)[C@H](CC(=O)O)NC(=O)CNC1=O` [Eptifibatide] ([Mpa][hArg]GDWPC-NH2; disulfide 1-7), the Ki turned out to be 27.8 µM.

As to `NCCCC[C@@H]1NC(=O)[C@@H](Cc2c[nH]c3ccccc23)NC(=O)[C@H](c2ccccc2)NC(=O)[C@@H]2C[C@@H](OC(=O)NCCN)CN2C(=O)[C@H](Cc2ccccc2)NC(=O)[C@H](Cc2ccc(OCc3ccccc3)cc2)NC1=O` [Pasireotide (acetate)] (cyclo([Hyp]([CO-Ethylenediamine])[Phg][dW]KY(Bn)F)), the affinity, expressed as Ki, was 19.9 µM.

Consider `COc1cc(C)c2c(Oc3cccc(C(F)(F)F)c3)c(OC)cc(NC(C)CCCN)c2n1` (stereo not drawn) [Tafenoquine (Succinate)], for which the affinity, expressed as Ki, was 16.3 µM.

Compound `Cc1ccc(NC(=O)c2ccc(CN3CCN(C)CC3)cc2)cc1Nc1nc(-c2cccnc2)cs1` [Masitinib] had a Ki of 43.9 µM.

As to `CO/N=C(\C(=O)N[C@@H]1C(=O)N2C(C(=O)O)=C(CSC(=O)c3ccco3)CS[C@H]12)c1csc(N)n1` [Ceftiofur (sodium)], the inhibitory constant (Ki) is 23 µM.

In the case of `O=C1c2c(O)ccc(O)c2C(=O)c2c(NCCNCCO)ccc(NCCNCCO)c21` [Mitoxantrone (dihydrochloride)], the Ki turned out to be 11.6 µM.

The compound `Nc1ccc2cc3ccc(N)cc3nc2c1` [Proflavine (hemisulfate)] displayed a Ki of 26.7 µM.

For the compound `Cc1ncc(NC(=O)c2ccc(CN3CCN(C)CC3)c(C(F)(F)F)c2)cc1Nc1nccc(-c2cccnc2)n1` [Flumatinib (mesylate)], the Ki came out at 12.2 µM.

Compound `CC[N+](C)(C)c1cccc(O)c1` [Edrophonium (chloride)] registered a Ki of 35.3 µM.

`O=NN(CCCl)C(=O)NCCCl` [Carmustine] came in with a Ki of 17.1 µM.

`CCCC[C@H](NC(C)=O)C(=O)N[C@H]1CC(=O)NCCCC[C@@H](C(=O)O)NC(=O)[C@H](Cc2c[nH]c3ccccc23)NC(=O)[C@H](CCCN=C(N)N)NC(=O)[C@@H](Cc2ccccc2)NC(=O)[C@H](Cc2cnc[nH]2)NC1=O` [Bremelanotide (Acetate)]: the affinity, expressed as Ki, was 25 µM.
